According to patent US20140248212A1, “NON-IMMUNOGENIC POSITRON EMISSION TOMOGRAPHY REPORTER GENE SYSTEMS” (THE REGENTS OF THE UNIVERSITY OF CALIFORNIA, priority 2011, published 2014):
Positions count from the first letter of the chain named. “Also recorded” adds a separate entry of the source.

How the values were obtained:
WT TK2 [1] = settings: reported by Ponomarev et al. 2007; cited from earlier work
thymidine kinase 2 (TK2) = target: T1, thymidine kinase 2 (TK2) (Homo sapiens, UniProt O00142); settings: cited from earlier work
T1 sequence (O00142 34-265): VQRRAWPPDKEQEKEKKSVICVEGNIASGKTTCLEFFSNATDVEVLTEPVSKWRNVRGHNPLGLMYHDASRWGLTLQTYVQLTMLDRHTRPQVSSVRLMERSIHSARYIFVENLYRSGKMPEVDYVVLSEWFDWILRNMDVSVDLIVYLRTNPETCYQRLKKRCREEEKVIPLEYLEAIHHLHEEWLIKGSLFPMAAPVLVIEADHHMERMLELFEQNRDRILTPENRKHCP

[2] = accumulation in liver, small intestine, kidneys, urinary bladder only; cited from earlier work
WT TK2 [3] = target: T2, WT TK2 (Homo sapiens, UniProt O00142); test: Kinetic analyses of recombinant TK2 (NADH-dependent enzyme coupled assay), WT TK2; format: biochemical; settings: 37° C., 1 mM ATP
T2 construct: hexahistidine (N, cleaved yes); SUMO (N, cleaved yes); made in house; host or cells: Escherichia coli BL21 (DE3) C41, modified pET14b
T2 sequence (O00142 51-265): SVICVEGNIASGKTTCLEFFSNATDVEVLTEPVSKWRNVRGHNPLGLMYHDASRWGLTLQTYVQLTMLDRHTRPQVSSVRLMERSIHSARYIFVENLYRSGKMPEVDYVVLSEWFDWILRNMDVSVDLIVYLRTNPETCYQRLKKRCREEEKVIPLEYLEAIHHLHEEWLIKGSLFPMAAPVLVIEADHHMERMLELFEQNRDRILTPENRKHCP

TK2-N93D/L109F = target: T3, TK2-N93D/L109F (Homo sapiens, UniProt O00142, L109F/N93D); test: Kinetic analyses of recombinant TK2 (NADH-dependent enzyme coupled assay), TK2-N93D/L109F; format: biochemical; settings: 37° C., 1 mM ATP
T3 construct: hexahistidine (N, cleaved yes); SUMO (N, cleaved yes); made in house; host or cells: Escherichia coli BL21 (DE3) C41, modified pET14b
T3 sequence (O00142 51-265 N93D/L109F): T2 sequence (O00142 51-265) with N43D, L59F
Protocol: FIG. 34 provides a table that illustrates the kinetics of the phosphorylation of D and L-nucleosides by the TK2 mutants. Kinase assays were performed with recombinant protein with 200 μM of the listed substrate.

[4] = target: deoxycytidine kinase (dCK) (Homo sapiens, UniProt P27707); settings: cited from earlier work
TK2-N93D = target: T4, TK2-N93D (Homo sapiens, UniProt O00142, N93D); test: Kinetic analyses of recombinant TK2 (NADH-dependent enzyme coupled assay), TK2-N93D; settings: 37° C., 1 mM ATP
T4 sequence (O00142 51-265 N93D): T2 sequence (O00142 51-265) with N43D
Protocol: (§3) A NADH-dependent enzyme coupled assay (see, e.g. Agarwal, K. C., et al. (1978) Methods Enzymol. 51, 483-490) was used. Using a Cary UV spectrophotometer, measurements were made in triplicate at 37° C. in a buffer containing 100 mM Tris, pH 7.5, 100 mM KCl, 5 mM MgCl2, and 1 mM ATP. For data in which kobs is given, a single nucleoside concentration of 200 μM was used. For data in which both Km and kcat are given, the nucleoside concentration was varied between 15 and 500 μM. TK2 concentration in the cuvette was 400 nM. Data were fit to the Michaelis-Menten equation using SigmaPlot. […] Therefore, all of the kinetic data using the Michaelis-Menten equation without the Hill coefficient is presented.

TK2-L109F = target: T5, TK2-L109F (Homo sapiens, UniProt O00142, L109F); test: Kinetic analyses of recombinant TK2 (NADH-dependent enzyme coupled assay), TK2-L109F; settings: 37° C., 1 mM ATP
T5 sequence (O00142 51-265 L109F): T2 sequence (O00142 51-265) with L59F
Protocol: as §3

[5] = Biodistribution of PET reporter probes in mice (microPET/CT); format: in vivo, C57/BL6 mice
Protocol: To identify candidate PRPs, eight nucleoside analogs (FIG. 7A) were synthesized that were amenable to ^18F labeling (the first criterion for PRPs). To identify PRP candidates with rapid clearance from normal tissues and low overall background (second criterion for PRGs), biodistribution studies in mice were performed. It was observed that natural (D) nucleosides had higher background than non-natural (L) nucleoside analogs. […] The next step was to identify a human nucleoside kinase that phosphorylates L-[^18F]FMAU and L-[^18F]FEAU, and can be converted into a new PRG that matches four criteria:
Initially, a group of nucleoside analogs amenable to fluorine-18 labeling were identified. These PET tracers, 5 of which were novel, were then screened to determine their biodistribution in C57/BL6 mice (n=3 for each PET tracer) through dynamic microPET scans. […] Rational design is utilized to introduce mutations into human nucleoside kinase thymidine kinase 2 (TK2) to improve the affinity of the kinase for the top candidate probe. The sensitivity and specificity of the novel PET reporter probe/gene pair was then determined in vitro and in vivo using a murine cancer model.
(§1) Animal studies were approved and carried out according to specific guidelines. C57/BL6 mice were injected with the indicated probe and underwent micro-PET/CT analyses at 1- and 3-h post probe injection (Inveon, Siemens Medical Solutions USA Inc.; microCAT; Imtek Inc.). For tumor imaging studies, SCID mice were injected subcutaneously on day −7 in the right and left flanks with 1×10^6 L1210-PRG-expressing cells in 50% v/v phosphate-buffered saline and 50% v/v Matrigel™ (BD Biosciences). For imaging experiments, mice were kept warm and under gas anesthesia (2% v/v isoflurane) and were injected intravenously with 200 μCi of ^18F-labeled probes. A 3-h interval was allowed between probe administration and microPET/CT scanning Static microPET images were acquired for 600 s. Image data were evaluated in three-dimensional histograms and reconstructed with a zoom factor of 2.1 using three-dimensional ordered set expectation maximization (OSEM) with 2 iterations followed by MAP (maximum a posteriori) reconstruction with 18 iterations (beta=0.1). Images were analyzed using OsiriX Imaging Software Version 3.8.

[6] = Human whole-body PET/CT biodistribution of PET reporter probes; format: in vivo
Description: All studies involving human volunteers were approved. A healthy person and a healthy volunteer were recruited for the L-^18F-FMAU biodistribution study. Each volunteer received a bolus intravenous injection of ˜56 MBq (1.5 mCi) sterile L-^18F-FMAU and had four consecutive whole-body (starting from just above the head to above the knees, 6 bed positions, 5-min scan at each bed position) PET scans (Biograph 64, Siemens), with the first scan starting shortly after intravenous injection of L-^18F-FMAU. A low dose CT scan was also obtained for attenuation correction. Volunteers urinated after all scans had been performed. The region of interest analysis was performed to measure mean standard uptake values of L-^18F-FMAU in major organs/tissues. To illustrate the biodistribution of ^18F-FHBG, unpublished scan from a previous study (see, e.g. Yaghoubi, S. S., et al. (2009) Nat. Clin. Pract. Oncol. 6, 53-58) was used.

[7] = system: L1210 tumors expressing WT TK2; test: microPET/CT of SCID mice bearing L1210-PRG tumors (WT TK2); format: in vivo; settings: 3 hrs post-injection, FIG. 10D
Description: (§2) To compare TK2, TK2-N93D and HSV1-sr39tk in vivo, PRG-expressing L1210 cells were implanted subcutaneously in SCID mice that were then scanned with L-[^18F]FMAU (FIG. 10A) and [^18F]FHBG (FIG. 10C) on consecutive days. […] Signals obtained with sr39tk were slightly higher than those obtained with the human TK2-N93D PRG (the difference was not statistically significant). […] L-[^18F]FMAU accumulation in TK2-N93D transduced tumors was ˜20 times higher than the accumulation in tumors transduced with the control (eYFP only) vector. While this ratio is higher than the 6.67 ratio reported for WT TK2 as a PRG with D-[^18F]FEAU as the PRP (see, e.g. Ponomarev, V., et al. J Nucl Med 48:819-826, 2007), the HSV1-sr39tk/[^18F]FHBG combination still outperforms the TK2-N93D/L-[^18F]FMAU combination by ˜2-fold. […]
Animal studies were approved and carried out according to specific guidelines. […] Image data were evaluated in three-dimensional histograms and reconstructed with a zoom factor of 2.1 using three-dimensional ordered set expectation maximization (OSEM) with 2 iterations followed by MAP (maximum a posteriori) reconstruction with 18 iterations (beta=0.1). Images were analyzed using OsiriX Imaging Software Version 3.8.

[8] = system: L1210 tumors expressing TK2-N93D; test: microPET/CT of SCID mice bearing L1210-PRG tumors (TK2-N93D); format: in vivo; settings: 3 hrs post-injection, FIG. 10D
Description: To compare TK2, TK2-N93D and HSV1-sr39tk in vivo, PRG-expressing L1210 cells were implanted subcutaneously in SCID mice that were then scanned with L-[^18F]FMAU (FIG. 10A) and [^18F]FHBG (FIG. 10C) on consecutive days. […] Signals obtained with sr39tk were slightly higher than those obtained with the human TK2-N93D PRG (the difference was not statistically significant). […] L-[^18F]FMAU accumulation in TK2-N93D transduced tumors was ˜20 times higher than the accumulation in tumors transduced with the control (eYFP only) vector. While this ratio is higher than the 6.67 ratio reported for WT TK2 as a PRG with D-[^18F]FEAU as the PRP (see, e.g. Ponomarev, V., et al. J Nucl Med 48:819-826, 2007), the HSV1-sr39tk/[^18F]FHBG combination still outperforms the TK2-N93D/L-[^18F]FMAU combination by ˜2-fold. The significance of the 2-fold difference for the sensitivity of the new TK2-N93D PRG can be further investigated in the animal models discussed below (see, e.g. Gerth, M. L., et al. Biochem Biophys Res Commun 354:802-807, 2007; Liu, L., et al. Nucleic Acids Res 37:4472-4481, 2009; Iyidogan, P., et al. Biochemistry 47:4711-4720, 2008; Lutz, S., et al. Chimia (Aarau) 63:737-744 2009).
as §1

[9] = system: L1210 tumors expressing HSV1-sr39tk; test: microPET/CT of SCID mice bearing L1210-PRG tumors (HSV1-sr39tk); format: in vivo
Description: as §2
Animal studies were approved and carried out according to specific guidelines. […] Image data were evaluated in three-dimensional histograms and reconstructed with a zoom factor of 2.1 using three-dimensional ordered set expectation maximization (OSEM) with 2 iterations followed by MAP (maximum a posteriori) reconstruction with 18 iterations (beta=0.1). Images were analyzed using OsiriX Imaging Software Version 3.8. […]

Chain of deoxycytidine kinase (dCK) (P27707 whole entry): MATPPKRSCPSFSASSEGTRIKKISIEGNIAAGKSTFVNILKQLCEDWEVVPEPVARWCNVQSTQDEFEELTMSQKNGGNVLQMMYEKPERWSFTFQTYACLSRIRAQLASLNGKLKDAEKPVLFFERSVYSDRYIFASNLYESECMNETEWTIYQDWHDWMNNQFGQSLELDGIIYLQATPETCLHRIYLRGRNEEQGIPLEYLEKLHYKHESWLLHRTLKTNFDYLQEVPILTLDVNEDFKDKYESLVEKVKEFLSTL

## CCc1cn([C@@H]2O[C@H](CO)[C@@H](O)[C@@H]2F)c(=O)[nH]c1=O [D-[^18F]FEAU, 2′-deoxy-2′-^18F-5-ethyl-1-β-D-arabinofuranosyluracil]
WT TK2 [1]
  ratio of accumulation, PRG versus control: 6.67
Thymidine kinase 2 (TK2)
  activity of kinase towards nucleoside analog: active towards L-FMAU, D-
[2]
  biodistribution as a candidate PRP: favorable biodistribution

## Cc1cn([C@H]2O[C@@H](CO)[C@H](O)[C@H]2F)c(=O)[nH]c1=O [L-FMAU]
WT TK2 [3]
  kcat (L-FMAU)/kcat (D-dT) ratio: 3.7
TK2-N93D/L109F
  increase of kcat compared with TK2: 100%
  kcat (L-FMAU)/kcat (D-dT) ratio: 14.9
  kcat (L-FMAU)/kcat (D-dT) ratio, higher than that for TK2: 4 fold
  kcat (L-FMAU)/kcat (D-dT) ratio, higher than that for TK2-N93D: ~40%
Thymidine kinase 2 (TK2)
  activity of kinase towards nucleoside analog: substrate for human TK2; also recorded: active towards L-FMAU, D-
[4]
  activity of kinase towards nucleoside analog: Very low activity with L-FMAU
TK2-N93D
  decrease of kcat relative to WT TK2: 32%
  increase of kcat/Km compared with WT TK2: 77%
  kcat (L-FMAU)/kcat (D-dT) ratio compared with wild type: nearly triples
TK2-L109F
  kcat (L-FMAU)/kcat (D-dT) ratio: 2.4

## Nc1nc2c(ncn2CCC(CO)C[18F])c(=O)[nH]1 (stereo not drawn) [^18F-FHBG, 9-[4-[^18F]fluoro-3-(hydroxymethyl)butyl]guanine, reference compound]
[5]; 3-h time point
  accumulation in the liver: neither probe showed any accumulation
[5]; 3 h after administration
  accumulation in the gallbladder: 7.45±5.31 % injected dose/g
  accumulation in the gallbladder, 18F-FHBG relative to L-18F-FMAU: 4 times
  retention in the abdominal cavity, 18F-FHBG relative to L-18F-FMAU: three times higher
  retention in the thoracic cavity: very low retention
  signals in the GI tract: detected throughout the GI tract
[5]; mice, compared with [18F]FHBG
  abdominal background: high abdominal background
[6]; 2 h post-administration
  tissues with relatively high signals: relatively high signals were observed in liver, kidneys, gall bladder, bladder, and the GI tract
[6]; whole-body PET/CT, human
  tracer background within abdomen and pelvis: high abdominal background
[7]
  [18F]FHBG accumulation in tumors: Neither WT TK2 nor TK2-N93D expressing tumors accumulated detectable amounts
[8]
  [18F]FHBG accumulation in tumors: Neither WT TK2 nor TK2-N93D expressing tumors accumulated detectable amounts
[9]; 18F-FHBG, 3 h post-injection
  probe uptake in L1210 tumors: 24.1±6.2 % injected dose/g
[9]; tumor to control ratio
  HSV1-sr39tk/[18F]FHBG combination outperforms TK2-N93D/L-[18F]FMAU combination: ~2 fold
